ChEMBL document CHEMBL1201862, “PubChem BioAssay data set” (2004)
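Growth conditions: 96-well plates. Treatment: test compound, 48 hours, 5 concentrations. Analysis: linear interpolation between bracketing concentrations; unreached endpoints set to highest concentration. Here, GI50 denotes the concentration required for 50% inhibition of growth.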 Calls of active or inactive are those of the source. Rule as the data show it: active = GI50 up to about 1.1 µM and inactive = higher.

Legend:
Experiment in all cases: growth of human tumour cells (NCI), 48 h
OVCAR-3 = system: OVCAR-3
HT-29 = system: HT-29
MDA-MB-231 = system: MDA-MB-231
OVCAR-8 = system: OVCAR-8
EKVX = system: EKVX
SF-539 = system: SF-539
UACC-257 = system: UACC-257
SK-MEL-28 = system: SK-MEL-28
SW-620 = system: SW-620
SK-MEL-2 = system: SK-MEL-2
ACHN = system: ACHN
SNB-75 = system: SNB-75
HOP-92 = system: HOP-92
SN12C = system: SN12C
NCI-H460 = system: NCI-H460
SR = system: SR
K562 = system: K562
DU-145 = system: DU-145
CCRF-CEM = system: CCRF-CEM
NCI-H226 = system: NCI-H226

| Structure (SMILES) | GI50 (OVCAR-3) | GI50 (HT-29) | GI50 (MDA-MB-231) | GI50 (OVCAR-8) | GI50 (EKVX) | GI50 (SF-539) | GI50 (UACC-257) | GI50 (SK-MEL-28) | GI50 (SW-620) | GI50 (SK-MEL-2) | GI50 (ACHN) | GI50 (SNB-75) | GI50 (HOP-92) | GI50 (SN12C) | GI50 (NCI-H460) | GI50 (SR) | GI50 (K562) | GI50 (DU-145) | GI50 (CCRF-CEM) | GI50 (NCI-H226) |
| --- | --- | --- | --- | --- | --- | --- | --- | --- | --- | --- | --- | --- | --- | --- | --- | --- | --- | --- | --- | --- |
| O=c1oc2c(Cl)cc(Cl)cc2cc1-c1cn2c(n1)sc1ccccc12 | 31.4 µM (inactive) | 71.1 µM (inactive) | 28.4 µM (inactive) | 87.1 µM (inactive) | 65.8 µM (inactive) | > 100 µM (inactive) | > 100 µM (inactive) | > 100 µM (inactive) | 31.9 µM (inactive) | > 100 µM (inactive) | 65.3 µM (inactive) | > 100 µM (inactive) | 56.1 µM (inactive) | 67.8 µM (inactive) | > 100 µM (inactive) | 21.1 µM (inactive) | 20.2 µM (inactive) | 74 µM (inactive) | 17.3 µM (inactive) |  |
| O=C(CSc1nc2ccccc2c(=O)n1-c1ccccc1)N/N=C1\C(=O)Nc2ccc(F)cc21 | 1.91 µM (inactive) | 3.06 µM (inactive) | 2.01 µM (inactive) |  | 2.43 µM (inactive) | 3.14 µM (inactive) | 2.47 µM (inactive) | 2.08 µM (inactive) | 4.24 µM (inactive) | 1.88 µM (inactive) | 1.91 µM (inactive) |  | 1.84 µM (inactive) | 1.97 µM (inactive) | 2.19 µM (inactive) | 1.53 µM (inactive) | 1.61 µM (inactive) | 1.89 µM (inactive) | 2.35 µM (inactive) | 2.28 µM (inactive) |
| CN(CC(=O)O)c1ncc2c(n1)-c1ccccc1OC2 |  | > 100 µM (inactive) | > 100 µM (inactive) | > 100 µM (inactive) | > 100 µM (inactive) | > 100 µM (inactive) | > 100 µM (inactive) | > 100 µM (inactive) | > 100 µM (inactive) | > 100 µM (inactive) | > 100 µM (inactive) | > 100 µM (inactive) | > 100 µM (inactive) | > 100 µM (inactive) | > 100 µM (inactive) | > 100 µM (inactive) | > 100 µM (inactive) | > 100 µM (inactive) | > 100 µM (inactive) |  |
| [O-][S+]1c2ccccc2SCSc2ccccc21 | > 100 µM (inactive) | > 100 µM (inactive) | > 100 µM (inactive) | > 100 µM (inactive) |  | > 100 µM (inactive) |  |  |  | > 100 µM (inactive) | > 100 µM (inactive) |  | 14.8 µM (inactive) | > 100 µM (inactive) | > 100 µM (inactive) | 46.2 µM (inactive) | 16.7 µM (inactive) | > 100 µM (inactive) |  |  |
| O=P(O)(O)CN1CCNCCN(CP(=O)(O)O)CCNCC1 | > 100 µM (inactive) | 3.95 µM (inactive) | > 100 µM (inactive) | 6.68 µM (inactive) | > 95.9 µM (inactive) | 11.7 µM (inactive) | 41.8 µM (inactive) | > 100 µM (inactive) | 4.74 µM (inactive) | > 100 µM (inactive) | > 100 µM (inactive) | > 51.6 µM (inactive) | 3.78 µM (inactive) | > 100 µM (inactive) | 3.24 µM (inactive) | 1.79 µM (inactive) | 3.44 µM (inactive) | > 100 µM (inactive) | 3.52 µM (inactive) |  |
| CC(C)(C)OC(=O)NC1CCCCC1NC(=O)C(=O)NC1CCCCC1NC(=O)OC(C)(C)C (stereo not given) | > 100 µM (inactive) | > 100 µM (inactive) | 27.2 µM (inactive) | > 100 µM (inactive) | > 100 µM (inactive) | 45.4 µM (inactive) | > 100 µM (inactive) | > 100 µM (inactive) | > 100 µM (inactive) | 59 µM (inactive) | 39.1 µM (inactive) |  | 13.5 µM (inactive) | > 100 µM (inactive) | > 100 µM (inactive) | > 100 µM (inactive) | > 100 µM (inactive) | > 100 µM (inactive) | > 100 µM (inactive) | > 100 µM (inactive) |
| COc1ccc(/C=C/C(=O)C(C)(C)Br)cc1 | 17.5 µM (inactive) |  | 20 µM (inactive) | 3.04 µM (inactive) | 15.1 µM (inactive) | 17.1 µM (inactive) | 15.5 µM (inactive) |  | 2.43 µM (inactive) | 12.2 µM (inactive) | 8.55 µM (inactive) |  | 11.8 µM (inactive) | 4.95 µM (inactive) | 18.9 µM (inactive) | 3.3 µM (inactive) | 4.61 µM (inactive) | 14.3 µM (inactive) | 1.59 µM (inactive) |  |
| COc1ccc(-n2c(CCCC(=O)O)nc3c2C(=O)c2ccccc2C3=O)cc1 | 33.3 µM (inactive) |  | 63.5 µM (inactive) | 51.3 µM (inactive) | 60.7 µM (inactive) | > 100 µM (inactive) | 27.8 µM (inactive) | > 100 µM (inactive) | 56.9 µM (inactive) | 84.7 µM (inactive) | 71.3 µM (inactive) | 89.5 µM (inactive) | 20.2 µM (inactive) | 54.6 µM (inactive) | 93.1 µM (inactive) | 66.8 µM (inactive) | 47.3 µM (inactive) | 92 µM (inactive) | 36.3 µM (inactive) |  |
| Cc1c(/N=N/c2ccccc2)c(-c2ccccc2)n(C2OC(CO)C(O)C(O)C2O)c(=S)c1C#N (stereo not given) | 4.56 µM (inactive) | 6.59 µM (inactive) | 10 µM (inactive) | 3.99 µM (inactive) | 13.8 µM (inactive) | 5.13 µM (inactive) |  | 4.03 µM (inactive) | 4.97 µM (inactive) | 4.48 µM (inactive) | 3.95 µM (inactive) | 2.72 µM (inactive) |  | 6.22 µM (inactive) | 10.6 µM (inactive) | > 100 µM (inactive) | 3.21 µM (inactive) | 6.17 µM (inactive) | 2.32 µM (inactive) | 10.8 µM (inactive) |
| Oc1ccc(O)c(Cc2ccccc2)c1 | 1.07 µM (active) | 37 µM (inactive) | 19 µM (inactive) | 15.4 µM (inactive) | 38.5 µM (inactive) | 10.7 µM (inactive) | 25.9 µM (inactive) | 33.7 µM (inactive) | 21.3 µM (inactive) | 18.7 µM (inactive) | 14.8 µM (inactive) |  | 16.3 µM (inactive) | 18.4 µM (inactive) | 20.7 µM (inactive) | 2.32 µM (inactive) | 10.6 µM (inactive) | 6.27 µM (inactive) | 7.41 µM (inactive) | 19.6 µM (inactive) |
| CCCCCCCCCCCCCCCC1(OC)C[N+](C)(C)CCO1 (stereo not given) | 1.75 µM (inactive) | 1.22 µM (inactive) | 1.75 µM (inactive) | 1.83 µM (inactive) | 2.31 µM (inactive) | 1.74 µM (inactive) | 2.08 µM (inactive) | 2.37 µM (inactive) | 3.21 µM (inactive) | 2.38 µM (inactive) | 1.85 µM (inactive) | 0.0556 µM (active) |  | 1.66 µM (inactive) | 2.09 µM (inactive) | 2.25 µM (inactive) | 1.85 µM (inactive) | 2.35 µM (inactive) | 0.637 µM (active) | 1.08 µM (active) |
| O=C(CCc1ccc(O)cc1)NCCCNC(=O)CCc1ccc(O)cc1 | > 100 µM (inactive) | > 100 µM (inactive) | > 100 µM (inactive) | > 100 µM (inactive) |  | > 100 µM (inactive) | > 100 µM (inactive) | > 100 µM (inactive) | > 100 µM (inactive) | > 100 µM (inactive) | > 100 µM (inactive) | 24.7 µM (inactive) |  | > 100 µM (inactive) | > 100 µM (inactive) | > 100 µM (inactive) | > 100 µM (inactive) | > 100 µM (inactive) | > 100 µM (inactive) | > 100 µM (inactive) |
| COc1cc2c(cc1OCCCN1CCN(C)CC1)N=C[C@@H]1CCCN1C2=O | 2.06 µM (inactive) | 1.74 µM (inactive) | 2.18 µM (inactive) | 2.58 µM (inactive) | 2.03 µM (inactive) | 2.19 µM (inactive) | 2.5 µM (inactive) | 1.9 µM (inactive) | 1.41 µM (inactive) | 2.42 µM (inactive) | 2.17 µM (inactive) |  | 0.75 µM (active) | 3.57 µM (inactive) | 2.82 µM (inactive) | 0.0887 µM (active) | 0.679 µM (active) | 2.25 µM (inactive) | 0.485 µM (active) | 1.93 µM (inactive) |
| COc1ccc(C2C=C(c3ccc4c(c3)OCO4)Oc3c2c(=O)oc2ccccc32)cc1OC (stereo not given) | 0.475 µM (active) | 0.402 µM (active) | 1.36 µM (inactive) | 0.839 µM (active) | 16.5 µM (inactive) | 0.308 µM (active) |  | > 93.1 µM (inactive) | 0.468 µM (active) |  | 0.627 µM (active) | 0.344 µM (active) | 34 µM (inactive) | 1.36 µM (inactive) | 0.406 µM (active) | 0.236 µM (active) | 0.299 µM (active) | 0.417 µM (active) | 0.406 µM (active) | 0.258 µM (active) |
| CC(C(O)c1ccccc1)[N+](=O)[O-] (stereo not given) | 4.91 µM (inactive) | 27.2 µM (inactive) | 26.5 µM (inactive) | 16.4 µM (inactive) | 30 µM (inactive) | 20.3 µM (inactive) | 16.8 µM (inactive) | 19.8 µM (inactive) | 8.81 µM (inactive) | 19.5 µM (inactive) | 16.3 µM (inactive) | 40.6 µM (inactive) |  | 18.1 µM (inactive) | 35.2 µM (inactive) | 2.68 µM (inactive) | 6.44 µM (inactive) | 12.7 µM (inactive) | 10 µM (inactive) | 24.4 µM (inactive) |
| COC1CN(C)/C(=N\c2cccc3ccccc23)S1 (stereo not given) |  | > 10 µM (inactive) | > 10 µM (inactive) | > 10 µM (inactive) |  | > 10 µM (inactive) | > 10 µM (inactive) | > 10 µM (inactive) | > 10 µM (inactive) |  | > 10 µM (inactive) | > 10 µM (inactive) | > 10 µM (inactive) | > 10 µM (inactive) |  | > 10 µM (inactive) | > 10 µM (inactive) | > 10 µM (inactive) | > 10 µM (inactive) |  |
